{
  "source": "patent US20250144051A1",
  "about": "“Colchicine for Treating Connective Tissue Disorders” (Khan Sciences, Inc., priority 2023, published 2025)",
  "key": {"TGF-β1": {"tested_on": "TGF-β1", "assay": "In vitro tendinopathy model, TGF-β1 in tenocyte supernatant (MSD multiplex)", "assay_type": "cell-based, human", "description": "(§1) In Vitro Tendinopathy Model: The below experiment was conducted on an in vitro tendinopathy model. Cells derived from human tendons (tenocytes) can serve as an in vitro model of tendons. See Miller et al., “MicroRNA29a regulates IL-33-mediated tissue remodelling in tendon disease.” Nat Commun 6, 6774 (2015). Cultured tenocytes can be used to investigate the effects of pro-inflammatory cytokines upon the most basic elements of tendon structure. See Ellis et al., “Defining the profile: Characterizing cytokines in tendon injury to improve clinical therapy.” Journal of Immunology and Regenerative Medicine 16, 100059 (2022). When a tendon is injured, it triggers a local inflammatory response that involves immune cell infiltration and the expression of pro-inflammatory mediators. This inflammatory environment can modify tenocyte physiology, causing them to become activated and pro-inflammatory. Exposing the tenocytes to the pro-inflammatory cytokines TNF-α and IL-1β can mimic the effects of tendon injury. See Smith et al., “Tumour necrosis factor alpha, interleukin 1 beta and interferon gamma have detrimental effects on equine tenocytes that cannot be rescued by IL-1RA or mesenchymal stromal cell-derived factors.” Cell Tissue Res 391, 523-544 (2023).\n(§2) Cell Culture System. Immortalized, healthy, commercially-sourced human tenocyte cells (donor, patellar tendon) were reconstituted, seeded in T-75 flasks coated with bovine collagen I, and were maintained in Tenocyte Growth Medium supplemented with Tenocyte Growth Supplement, FBS, and penicillin/streptomycin. Culture conditions were maintained at 37° C. in a humidified 5% CO2 atmosphere. Cells were seeded at a density of 100,000 cells/well in commercially-sourced 24-well plates that were pre-coated with rat tail tendon collagen I.\n(§3) Treatment Protocol. This study was designed to follow the time-course of collagen production after cytokine exposure to mimic the effects of tendon injury. The time variable was cytokine exposure time (6 hours, 1 day, 3 days, and 5 days). Each of these cytokine exposure time periods was followed by a 24-hour drug treatment period. Inflammatory conditions were induced using a combination of IL-1β (1 nM; 17 ng/ml) and TNF-α (10 ng/ml). Two therapeutic interventions were evaluated. The treatment designated as “treatment A” was colchicine (2 nM). The treatment designated as “treatment B” was colchicine (2 nM) plus pyridoxine (100 μM).\n(§4) Experimental Groups. The treatment groups were as follows: (1) exposed to inflammatory cytokines plus treatment A; (2) exposed to inflammatory cytokines plus treatment B; (3) exposed to inflammatory cytokines (negative control, no drug). Further reference control groups were as follows: (A) treatment A without inflammatory cytokine exposure (drug-only control); (B) treatment B without inflammatory cytokine exposure (drug-only control); (C) healthy control (no inflammatory cytokines, no drug treatment).\n(§5) Sample Collection Times. Samples were collected at the following timepoints after initiation of cytokine exposure: • 6-hour samples: Collection at 30 hours (6 hr cytokine exposure+24 hr drug treatment) • 1-day samples: Collection at 48 hours (24 hr cytokine exposure+24 hr drug treatment) • 3-day samples: Collection at 96 hours (72 hr cytokine exposure+24 hr drug treatment) • 5-day samples: Collection at 144 hours (120 hr cytokine exposure+24 hr drug treatment, cell culture medium replenished on day-3)\n(§6) Assays Used. Collagen I (human) content was measured using enzyme-linked immunosorbent assay (ELISA) in cell culture supernatants. TGF-β1 in cell culture supernatants were measured using the MSD multiplex platform. Other inflammatory cytokines in cell culture supernatants were measured using the MSD multiplex platform."}, "[1]": {"tested_on": "patient with bilateral upper extremity tendonitis (repetitive strain injury)", "assay": "Experimental clinical trial of oral colchicine in one patient with tendonitis", "assay_type": "in vivo, human", "description": "An experimental trial was conducted on a patient, who was a person with bilateral upper extremity tendonitis for 7 months duration. The symptoms at the wrist radiated down to their fingers and up to their elbow. They reported the severity of their symptoms as 5-7 on a 1-10 standard discomfort scale. The cause of their widespread tendonitis was repetitive strain injury.\nThe patient began treatment with 0.6 mg of colchicine by oral intake once daily. […] With continued daily dosing of colchicine for a total of two weeks duration, symptoms were nearly gone. They were free of symptoms while performing their activities of daily living. At the end of two weeks of treatment, the patient reported reduced severity of symptoms to a level of 2 on a standard 1-10 discomfort scale.\nThe experimental trial was further extended to observe the effect of discontinuing the colchicine after initially achieving therapeutic success. Upon discontinuing, their tendonitis symptoms gradually returned. After 7 days without treatment, they reported the severity of their symptoms had worsened to 5 on the standard scale. After another 14 days without treatment (21 days cumulative), their symptoms remained at level 5, and occasionally rising to level 6 with increased arm use activity."}, "Collagen I (human)": {"tested_on": "Collagen I (human)", "assay": "In vitro tendinopathy model, collagen I ELISA in tenocyte culture supernatant", "assay_type": "cell-based", "description": "as §1, §2, §3, §4\nSample Collection Times. […]\nas §6"}, "IL-33": {"tested_on": "IL-33", "assay": "In vitro tendinopathy model, IL-33 in tenocyte supernatant (MSD multiplex)", "assay_type": "cell-based, human", "set-up": "IL-33, % of negative control / reduction of IL-33 levels compared to negative control: concentration or dose not given beside the values", "description": "as §1, §2, §3, §4, §5, §6"}, "TNF-α": {"tested_on": "TNF-α", "assay": "In vitro tendinopathy model, TNF-α in tenocyte supernatant (MSD multiplex)", "assay_type": "cell-based, human", "description": "as §1, §2, §3, §4, §5, §6"}, "[2]": {"conditions": "6 hr cytokine exposure + 24 hr drug treatment"}, "[3]": {"conditions": "1 day cytokine exposure + 24 hr drug treatment"}, "[4]": {"conditions": "3 days cytokine exposure + 24 hr drug treatment"}, "[5]": {"conditions": "5 days cytokine exposure + 24 hr drug treatment"}},
  "data": [
    {"molecule": "COc1cc2c(c(OC)c1OC)-c1ccc(OC)c(=O)cc1[C@@H](NC(C)=O)CC2", "note": "[Treatment A, colchicine]", "values": [
      {"measurement": "TGF-β1, % of negative control", "setting": "TGF-β1; [2]", "result": 127, "unit": "%"},
      {"measurement": "TGF-β1 level", "setting": "TGF-β1; 6 hr cytokine exposure + 24 hr drug treatment, negative control 0.97 ng/ml", "result": 1.23, "unit": "ng/mL"},
      {"measurement": "TGF-β1, % of negative control", "setting": "TGF-β1; [3]", "result": 104, "unit": "%"},
      {"measurement": "TGF-β1 level", "setting": "TGF-β1; 1 day cytokine exposure + 24 hr drug treatment, negative control 1.22 ng/ml", "result": 1.28, "unit": "ng/mL"},
      {"measurement": "TGF-β1, % of healthy baseline", "setting": "TGF-β1; [4]", "result": 112, "unit": "%"},
      {"measurement": "TGF-β1, % of negative control", "setting": "TGF-β1; [4]", "result": 114, "unit": "%"},
      {"measurement": "TGF-β1 level", "setting": "TGF-β1; 3 days cytokine exposure + 24 hr drug treatment, negative control 1.70 ng/ml", "result": 1.94, "unit": "ng/mL"},
      {"measurement": "TGF-β1, % of negative control", "setting": "TGF-β1; [5]", "result": 108, "unit": "%"},
      {"measurement": "TGF-β1 level", "setting": "TGF-β1; 5 days cytokine exposure + 24 hr drug treatment, negative control 1.22 ng/mL", "result": 1.32, "unit": "ng/mL"},
      {"measurement": "TGF-β1 level", "setting": "TGF-β1; drug alone, without inflammatory cytokines, healthy control 1.73 ng/ml", "result": 1.90, "unit": "ng/mL"},
      {"measurement": "TGF-β1, % of healthy baseline", "setting": "TGF-β1; drug-only control, without inflammatory cytokines", "result": 110, "unit": "%"},
      {"measurement": "tendonitis symptoms", "setting": "[1]; 0.6 mg oral once daily, by the second day of treatment", "result": "began to improve"},
      {"measurement": "severity of symptoms on standard 1-10 discomfort scale", "setting": "[1]; 0.6 mg oral once daily, end of two weeks of treatment, before treatment 5-7", "result": 2},
      {"measurement": "tendonitis symptoms", "setting": "[1]; 0.6 mg oral once daily, total of two weeks duration", "result": "nearly gone"},
      {"measurement": "severity of symptoms on standard 1-10 discomfort scale", "setting": "[1]; 7 days without treatment after discontinuing colchicine", "result": 5},
      {"measurement": "severity of symptoms on standard 1-10 discomfort scale", "setting": "[1]; 21 days cumulative without treatment after discontinuing colchicine", "result": 5},
      {"measurement": "collagen I level", "setting": "Collagen I (human); 6 hr IL-1β + TNF-α exposure + 24 hr drug treatment, negative control 24 ng/mL", "result": 20, "unit": "ng/mL"},
      {"measurement": "collagen I level", "setting": "Collagen I (human); 1 day IL-1β + TNF-α exposure + 24 hr drug treatment, negative control 20 ng/ml", "result": 19, "unit": "ng/mL"},
      {"measurement": "collagen I level", "setting": "Collagen I (human); 3 days IL-1β + TNF-α exposure + 24 hr drug treatment, negative control 23 ng/ml", "result": 21, "unit": "ng/mL"},
      {"measurement": "collagen I level", "setting": "Collagen I (human); 5 days IL-1β + TNF-α exposure + 24 hr drug treatment, negative control 28 ng/ml", "result": 28, "unit": "ng/mL"},
      {"measurement": "collagen I level", "setting": "Collagen I (human); drug alone, without inflammatory cytokines, healthy control 30 ng/ml", "result": 17, "unit": "ng/mL"},
      {"measurement": "IL-33, % of healthy level", "setting": "IL-33; [2]", "result": 113.6, "unit": "%"},
      {"measurement": "IL-33, % of negative control", "setting": "IL-33; [2]", "result": 55.0, "unit": "%"},
      {"measurement": "IL-33 level", "setting": "IL-33; 6 hr cytokine exposure + 24 hr drug treatment, negative control 18.0 pg/mL", "result": 9.9, "unit": "pg/mL"},
      {"measurement": "IL-33, % of healthy level", "setting": "IL-33; [3]", "result": 128.1, "unit": "%"},
      {"measurement": "IL-33, % of negative control", "setting": "IL-33; [3]", "result": 85.1, "unit": "%"},
      {"measurement": "IL-33 level", "setting": "IL-33; 1 day cytokine exposure + 24 hr drug treatment, negative control 13.1 pg/mL", "result": 11.2, "unit": "pg/mL"},
      {"measurement": "IL-33, % of healthy level", "setting": "IL-33; [4]", "result": 87.1, "unit": "%"},
      {"measurement": "IL-33, % of negative control", "setting": "IL-33; [4]", "result": 70.8, "unit": "%"},
      {"measurement": "IL-33 level", "setting": "IL-33; 3 days cytokine exposure + 24 hr drug treatment, negative control 10.7 pg/mL", "result": 7.6, "unit": "pg/mL"},
      {"measurement": "IL-33, % of healthy level", "setting": "IL-33; [5]", "result": 167.4, "unit": "%"},
      {"measurement": "IL-33, % of negative control", "setting": "IL-33; [5]", "result": 85.4, "unit": "%"},
      {"measurement": "IL-33 level", "setting": "IL-33; 5 days cytokine exposure + 24 hr drug treatment, negative control 17.1 pg/ml", "result": 14.6, "unit": "pg/mL"},
      {"measurement": "reduction of IL-33 levels compared to negative control", "setting": "IL-33; at 6 hours", "result": 45, "unit": "%"},
      {"measurement": "IL-33 level", "setting": "IL-33; drug alone, without inflammatory cytokines, healthy control 8.7 pg/mL", "result": 3.4, "unit": "pg/mL"},
      {"measurement": "TNF-α, % of healthy level", "setting": "TNF-α; [2]", "result": 926.9, "unit": "%"},
      {"measurement": "TNF-α, % of negative control", "setting": "TNF-α; [2]", "result": 116.7, "unit": "%"},
      {"measurement": "TNF-α level", "setting": "TNF-α; 6 hr cytokine exposure + 24 hr drug treatment, negative control 1678.4 pg/mL", "result": 1958.4, "unit": "pg/mL"},
      {"measurement": "TNF-α, % of healthy level", "setting": "TNF-α; [3]", "result": 806.3, "unit": "%"},
      {"measurement": "TNF-α, % of negative control", "setting": "TNF-α; [3]", "result": 129.3, "unit": "%"},
      {"measurement": "TNF-α level", "setting": "TNF-α; 1 day cytokine exposure + 24 hr drug treatment, negative control 1317.2 pg/mL", "result": 1703.5, "unit": "pg/mL"},
      {"measurement": "TNF-α, % of healthy level", "setting": "TNF-α; [4]", "result": 617.0, "unit": "%"},
      {"measurement": "TNF-α, % of negative control", "setting": "TNF-α; [4]", "result": 135.8, "unit": "%"},
      {"measurement": "TNF-α level", "setting": "TNF-α; 3 days cytokine exposure + 24 hr drug treatment, negative control 960.1 pg/mL", "result": 1303.6, "unit": "pg/mL"}
    ]}
  ]
}
